Test results taken from patent US7452908B2, “Amide derivatives” (Banyu Pharmaceutical Co., Ltd., priority 1999, dated 2008).

Experiments:
[1] = biological target: T1, human m4 muscarinic acetylcholine receptor expressed in CHO cells (Homo sapiens, UniProt P08173); experiment: Inhibition of [3H]-N-methylscopolamine binding to muscarinic m4 receptor; settings: 0.2 nM [3H]-N-methylscopolamine
T1 construct: purchased Receptor Biology, Inc; host or cells: CHO cells
T1 sequence (P08173 1-479): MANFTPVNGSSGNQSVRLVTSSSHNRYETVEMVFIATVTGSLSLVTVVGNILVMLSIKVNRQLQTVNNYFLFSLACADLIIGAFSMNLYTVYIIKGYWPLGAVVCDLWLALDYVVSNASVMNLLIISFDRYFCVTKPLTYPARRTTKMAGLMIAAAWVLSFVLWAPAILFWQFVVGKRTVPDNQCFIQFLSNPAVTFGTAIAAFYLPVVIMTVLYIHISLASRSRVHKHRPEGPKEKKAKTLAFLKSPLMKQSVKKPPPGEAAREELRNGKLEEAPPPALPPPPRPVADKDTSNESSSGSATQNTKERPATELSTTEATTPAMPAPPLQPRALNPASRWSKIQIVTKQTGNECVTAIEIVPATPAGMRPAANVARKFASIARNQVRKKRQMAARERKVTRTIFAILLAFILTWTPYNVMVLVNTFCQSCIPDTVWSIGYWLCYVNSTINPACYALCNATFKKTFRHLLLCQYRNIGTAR
Protocol: (§1) These tests were performed according to a modification of the method of Hargreaves, et al. (Br. J. Pharmacol. 107: 494-501, 1992). Namely, muscarinic acetylcholine receptors of human m1, m2, m3, m4 and m5 expressed in CHO cells (Receptor Biology, Inc.) were incubated with 0.2 nM [^3H]-N-methylscopolamine (82Ci/mmol, New England Nuclear, Inc.) and a test compound to be tested in 0.5 ml of 50 mM Tris-HCl, 10 mM MgCl2, 1 mM EDTA solution (pH 7.4) for 120 minutes at room temperature (about 20-25° C.), followed by suction filtration over a glass filter (UniFilter plate-GF/C; Packard). Then the filter was washed four times with 1 ml of ice-cold Tris-HCl buffer and dried at 50° C. for an hour. After adding a scintillator (Microscinti 0; Packard), the radioactivity of [^3H]-N-methylscopolamine binding to the filter was counted with a microplate scintillation counter (TopCount™; Packard). Non-specific receptor binding of [^3H]-N-methylscopolamine was measured by adding 1 μM N-methylscopolamine.

[2] = biological target: T2, human m1 muscarinic acetylcholine receptor expressed in CHO cells (Homo sapiens, UniProt P11229); experiment: Inhibition of [3H]-N-methylscopolamine binding to muscarinic m1 receptor; settings: 0.2 nM [3H]-N-methylscopolamine
T2 construct: purchased Receptor Biology, Inc; host or cells: CHO cells
T2 sequence (P11229 1-460): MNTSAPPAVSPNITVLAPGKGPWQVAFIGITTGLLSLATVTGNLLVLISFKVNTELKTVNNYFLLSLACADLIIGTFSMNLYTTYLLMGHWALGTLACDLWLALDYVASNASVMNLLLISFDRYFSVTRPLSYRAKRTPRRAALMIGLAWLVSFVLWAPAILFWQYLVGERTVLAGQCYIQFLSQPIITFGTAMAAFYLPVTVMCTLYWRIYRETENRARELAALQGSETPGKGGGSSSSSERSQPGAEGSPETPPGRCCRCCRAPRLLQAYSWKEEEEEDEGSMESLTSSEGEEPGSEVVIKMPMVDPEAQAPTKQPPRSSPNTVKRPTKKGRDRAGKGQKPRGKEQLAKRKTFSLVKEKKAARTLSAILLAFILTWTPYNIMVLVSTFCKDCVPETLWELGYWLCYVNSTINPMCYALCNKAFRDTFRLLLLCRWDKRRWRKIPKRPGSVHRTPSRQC
Protocol: as §1

[3] = biological target: T3, human m5 muscarinic acetylcholine receptor expressed in CHO cells (Homo sapiens, UniProt P08912); experiment: Inhibition of [3H]-N-methylscopolamine binding to muscarinic m5 receptor; settings: 0.2 nM [3H]-N-methylscopolamine
T3 construct: purchased Receptor Biology, Inc; host or cells: CHO cells
T3 sequence (P08912 1-532): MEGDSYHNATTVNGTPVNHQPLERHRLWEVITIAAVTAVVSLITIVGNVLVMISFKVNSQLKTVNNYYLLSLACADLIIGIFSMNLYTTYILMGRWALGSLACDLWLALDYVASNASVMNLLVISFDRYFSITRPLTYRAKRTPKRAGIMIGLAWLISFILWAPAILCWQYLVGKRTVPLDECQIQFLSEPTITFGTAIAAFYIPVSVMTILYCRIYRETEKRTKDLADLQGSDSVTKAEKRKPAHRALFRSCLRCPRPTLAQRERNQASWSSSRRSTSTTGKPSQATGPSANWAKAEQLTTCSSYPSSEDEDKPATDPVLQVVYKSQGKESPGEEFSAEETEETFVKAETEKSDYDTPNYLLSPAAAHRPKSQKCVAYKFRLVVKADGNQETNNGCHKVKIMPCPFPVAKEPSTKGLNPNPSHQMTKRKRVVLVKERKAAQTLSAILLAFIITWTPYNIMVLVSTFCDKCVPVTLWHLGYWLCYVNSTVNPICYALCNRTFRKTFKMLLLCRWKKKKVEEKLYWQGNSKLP
Protocol: as §1

[4] = biological target: T4, human m3 muscarinic acetylcholine receptor expressed in CHO cells (Homo sapiens, UniProt P20309); experiment: Inhibition of [3H]-N-methylscopolamine binding to muscarinic m3 receptor; settings: for Ki: human m3 in CHO cells, 0.2 nM [3H]-N-methylscopolamine; for Selectivity m1/m3: ratio of Ki m1 to Ki m3; for Selectivity m2/m3: ratio of Ki m2 to Ki m3; for Selectivity m4/m3: ratio of Ki m4 to Ki m3; for Selectivity m5/m3: ratio of Ki m5 to Ki m3
T4 construct: purchased Receptor Biology, Inc; host or cells: CHO cells
T4 sequence (P20309 whole entry): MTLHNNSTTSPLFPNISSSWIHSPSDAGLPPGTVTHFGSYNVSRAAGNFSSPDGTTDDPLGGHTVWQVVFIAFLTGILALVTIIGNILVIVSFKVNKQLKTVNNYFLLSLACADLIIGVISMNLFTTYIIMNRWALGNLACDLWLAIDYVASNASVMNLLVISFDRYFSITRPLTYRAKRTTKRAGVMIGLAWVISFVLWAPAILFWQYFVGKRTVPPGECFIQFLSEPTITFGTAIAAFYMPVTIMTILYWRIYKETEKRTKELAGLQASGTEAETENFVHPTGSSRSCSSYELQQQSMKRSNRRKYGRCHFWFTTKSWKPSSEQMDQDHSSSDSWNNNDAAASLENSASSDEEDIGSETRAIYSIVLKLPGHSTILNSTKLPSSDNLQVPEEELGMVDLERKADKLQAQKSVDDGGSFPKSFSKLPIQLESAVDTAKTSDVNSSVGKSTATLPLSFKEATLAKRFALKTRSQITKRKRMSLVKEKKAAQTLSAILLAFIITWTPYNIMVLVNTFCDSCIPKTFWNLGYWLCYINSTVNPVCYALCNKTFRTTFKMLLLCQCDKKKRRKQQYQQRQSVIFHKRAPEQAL
Protocol: as §1

[5] = biological target: T5, human m2 muscarinic acetylcholine receptor expressed in CHO cells (Homo sapiens, UniProt P08172); experiment: Inhibition of [3H]-N-methylscopolamine binding to muscarinic m2 receptor; settings: 0.2 nM [3H]-N-methylscopolamine
T5 construct: purchased Receptor Biology, Inc; host or cells: CHO cells
T5 sequence (P08172 1-466): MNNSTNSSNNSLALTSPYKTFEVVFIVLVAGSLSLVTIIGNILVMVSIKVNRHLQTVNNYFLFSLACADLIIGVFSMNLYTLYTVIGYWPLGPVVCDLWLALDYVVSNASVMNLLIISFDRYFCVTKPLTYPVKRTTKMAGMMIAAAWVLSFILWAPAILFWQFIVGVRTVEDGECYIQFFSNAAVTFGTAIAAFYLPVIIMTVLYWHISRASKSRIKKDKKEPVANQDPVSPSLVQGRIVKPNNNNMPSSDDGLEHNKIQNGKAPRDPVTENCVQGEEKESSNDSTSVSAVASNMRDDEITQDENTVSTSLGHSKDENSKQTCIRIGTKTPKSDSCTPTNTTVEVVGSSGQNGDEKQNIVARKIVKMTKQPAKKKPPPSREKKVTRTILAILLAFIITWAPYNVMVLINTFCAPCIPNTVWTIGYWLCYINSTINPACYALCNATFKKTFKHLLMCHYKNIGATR
Protocol: as §1

M3 receptor = biological target: T6, M3 receptor (Canis lupus familiaris, UniProt A0A8I3N190); experiment: Antagonism to M3 receptor: bronchodilation in anesthetized dogs (methacholine provocation test); type: in vivo, beagle dogs; settings: inhalation of 1 mg/ml for 10 minutes, methacholine threshold four hours after administration
T6 construct: from tissue; host or cells: whole animal, male beagle dogs (in vivo, airway)
T6 sequence (A0A8I3N190 1-590): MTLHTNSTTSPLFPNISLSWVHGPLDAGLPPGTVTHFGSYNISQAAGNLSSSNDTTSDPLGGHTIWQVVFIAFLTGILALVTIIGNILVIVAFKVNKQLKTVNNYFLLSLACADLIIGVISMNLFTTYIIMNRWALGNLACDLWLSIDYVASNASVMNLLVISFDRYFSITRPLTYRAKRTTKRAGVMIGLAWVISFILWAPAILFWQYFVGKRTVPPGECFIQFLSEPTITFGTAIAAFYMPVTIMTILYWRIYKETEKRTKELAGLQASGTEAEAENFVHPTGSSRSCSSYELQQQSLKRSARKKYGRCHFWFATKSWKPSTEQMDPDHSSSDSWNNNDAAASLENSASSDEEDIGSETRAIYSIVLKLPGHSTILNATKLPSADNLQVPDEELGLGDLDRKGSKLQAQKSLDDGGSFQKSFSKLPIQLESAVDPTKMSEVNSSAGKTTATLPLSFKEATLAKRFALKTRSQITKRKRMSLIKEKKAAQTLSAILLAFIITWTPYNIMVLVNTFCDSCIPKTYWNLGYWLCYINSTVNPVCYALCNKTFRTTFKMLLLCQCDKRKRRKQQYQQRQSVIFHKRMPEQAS
Protocol: The bronchodilation action of inhaled test compound was evaluated by measuring the compounds' inhibitory action on respiratory resistance-increasing reaction induced by a methacholine provocation test. For the experiment, 12 to 36 months old male beagle dogs (weighing 10-15 kg) were used. After being anesthetized by intravenous pentobarbital administration (30 mg/kg), the dogs were intubated cannulae in their trachea. After their respiration became stable, the cannulae were connected with Astograph (TCK-6100H, Chest) and a methacholine provocation test by 3 Hz oscillation method was conducted. […] The methacholine concentration at which the respiratory resistance increased to twice the initial value was recorded as the methacholine reaction threshold value. Before evaluating the test compounds, the methacholine reaction threshold value^1) under no drug treatment was measured at least twice at a week's interval, to select the dogs showing reproducible reaction.
The inhaling administration of each test compound (1 mg/ml) was conducted for 10 minutes under pentobarbital anesthetization (30 mg/kg, i.v.), with the nebulizer in the Astograph. […] The bronchodilator activity (shift value) of each tested compound was determined according to the following equation: […]

Row | Ki [1] | Ki [2] | Ki [3] | Ki [4] | Selectivity m1/m3 [4] | Selectivity m2/m3 [4] | Selectivity m4/m3 [4] | Selectivity m5/m3 [4] | Ki [5] | Shift (fold) Airway constriction M3 (M3 receptor) | SMILES
1 | 36 nM | 130 nM | 220 nM | 1.2 nM | 110 times | 71 times | 30 times | 180 times | 85 nM |  | O=C(CCCCCNC(=O)CC(c1ccccc1)(c1ccccc1)c1ccccc1)NC[C@H]1CCCN(CC2CCCCC2)C1 [Example 28, N-(6-{((3R)-1-cyclohexylmethyl-3-piperidyl)methyl}amino-6-oxohexyl)-3,3,3-triphenylpropanamide]
2 | 8.1 nM | 270 nM | 19 nM | 0.75 nM | 360 times | 40 times | 11 times | 25 times | 30 nM |  | O=C(CCNC(=O)[C@H](Cc1c[nH]cn1)NC(=O)CC(c1ccccc1)(c1ccccc1)c1ccccc1)NC[C@H]1CCCN(CC2CCCCC2)C1 [Example 19, N-{(1S)-2-(3-{((3R)-1-cyclohexylmethyl-3-piperidyl)methyl}-amino-3-oxopropyl)amino-1-(1H-imidazol-4-ylmethyl)-2-oxoethyl}-3,3,3-triphenylpropanamide]
3 | 66 nM | 860 nM | 82 nM | 1.8 nM | 480 times | 140 times | 37 times | 46 times | 250 nM |  | CCCCCN1CCC[C@H](CNC(=O)CCNC(=O)CNC(=O)CC(c2ccccc2)(c2ccccc2)c2ccccc2)C1 [Example 6, N-{2-(3-{((3R)-1-pentyl-3-piperidyl)methyl}amino-3-oxopropyl)amino-2-oxoethyl}-3,3,3-triphenylpropanamide]

Second part, the compound before the results:

Row | SMILES | Ki [1] | Ki [2] | Ki [3] | Ki [4] | Selectivity m1/m3 [4] | Selectivity m2/m3 [4] | Selectivity m4/m3 [4] | Selectivity m5/m3 [4] | Ki [5] | Shift (fold) Airway constriction M3 (M3 receptor)
4 | CCCCCCC[N+]1(C)CCC[C@H](CNC(=O)CCNC(=O)CNC(=O)CC(c2ccccc2)(c2ccccc2)c2ccccc2)C1.[Br-] (stereo partly drawn) [Example 146, (3R)-1-heptyl-1-methyl-3-({(3-{(2-{(3,3,3-triphenylpropanoyl)amino}acetyl)amino}propanoyl)amino}methyl)piperidinium bromide] | 360 nM | 1200 nM | 490 nM | 15 nM | 80 times | 67 times | 24 times | 33 times | 1000 nM | 
5 | CC[N+]1(CC)CCC[C@H](CNC(=O)[C@H]2CCCN2C(=O)[C@@H]2C[C@@H](O)CN2C(=O)CC(c2ccc(Cl)cc2)(c2ccc(Cl)cc2)c2ccc(Cl)cc2)C1.[Cl-] [Example 144, (3R)-1,1-diethyl-3-({({(2R)-1-({(2S,4R)-4-hydroxy-1-{3,3,3-tris-(4-chlorophenyl)propanoyl}-2-pyrrolidinyl}carbonyl)-2-pyrrolidinyl}-carbonyl)amino}methyl)piperidinium chloride] | 27 nM | 110 nM | 230 nM | 1.3 nM | 85 times | 85 times | 21 times | 180 times | 110 nM | 
6 | CC[C@H](C)C[N+]1(CC)CCC[C@@H](CNC(=O)CCCCCNC(=O)CC(c2ccccc2)(c2ccccc2)c2ccccc2)C1.[Cl-] (stereo partly drawn) [Example 150, (3S)-1-ethyl-1-{(2S)-2-methylbutyl}-3-({(6-{(3,3,3-triphenylpropanoyl)amino}hexanoyl)amino}methyl)piperidinium chloride] | 310 nM | 150 nM | 850 nM | 4.7 nM | 32 times | 100 times | 66 times | 180 times | 490 nM | 
7 | O=C(NC[C@H]1CCC[N+]2(CCCC2)C1)[C@H]1CCCN1C(=O)[C@@H]1C[C@@H](O)CN1C(=O)CC(c1ccccc1)(c1ccccc1)c1ccccc1.[Cl-] [Example 151, (7R)-7-({({(2R)-1-({(2S,4R)-4-hydroxy-1-(3,3,3-triphenylpropanoyl)-2-pyrrolidinyl}carbonyl)-2-pyrrolidinyl}carbonyl)amino}methyl)-5-azoniaspiro [4.5]decane chloride] | 74 nM | 450 nM | 890 nM | 3.5 nM | 130 times | 130 times | 21 times | 250 times | 460 nM | >40.0 fold
